Test results as given in PMC3664642, “A Peptide against Soluble Guanylyl Cyclase α1: A New Approach to Treating Prostate Cancer” (PLoS ONE, 2013).
pKd: −log10 of the molar value. Entries after “also recorded” stand apart in the source; their conditions may differ. Where no end group is shown, it is not given here.

Key:
[1] = target: T1, sGCα1 (Homo sapiens, UniProt Q02108); assay: Binding affinity by immunoprecipitation with FITC-tagged peptide; design: endogenous sGCα1 was immunoprecipitated; endogenous in cells; host or cells: C81 cells (methods); conditions: C81 whole-cell extract (legend: LNCaP extract), room temperature, 2 hours, IP with anti-sGCα1, fluorescence 485/521 nm, nonlinear regression
T1 sequence (Q02108 1-690): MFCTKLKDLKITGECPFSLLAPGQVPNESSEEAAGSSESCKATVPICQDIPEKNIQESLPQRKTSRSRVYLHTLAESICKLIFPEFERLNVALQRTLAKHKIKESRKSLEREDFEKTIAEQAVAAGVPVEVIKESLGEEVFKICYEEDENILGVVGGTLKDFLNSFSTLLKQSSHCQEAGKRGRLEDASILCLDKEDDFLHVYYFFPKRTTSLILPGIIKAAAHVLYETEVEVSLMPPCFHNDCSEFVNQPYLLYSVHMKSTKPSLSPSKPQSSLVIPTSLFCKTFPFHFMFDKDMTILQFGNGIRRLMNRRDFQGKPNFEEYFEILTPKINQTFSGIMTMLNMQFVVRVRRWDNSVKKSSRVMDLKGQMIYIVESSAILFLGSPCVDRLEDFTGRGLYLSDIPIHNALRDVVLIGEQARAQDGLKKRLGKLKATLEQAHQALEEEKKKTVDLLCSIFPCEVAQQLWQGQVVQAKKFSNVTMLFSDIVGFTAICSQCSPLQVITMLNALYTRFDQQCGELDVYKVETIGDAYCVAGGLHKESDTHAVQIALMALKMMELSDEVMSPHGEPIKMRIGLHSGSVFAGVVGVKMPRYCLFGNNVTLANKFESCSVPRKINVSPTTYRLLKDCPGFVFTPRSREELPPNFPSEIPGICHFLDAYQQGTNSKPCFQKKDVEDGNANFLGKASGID
Protocol: For binding affinity experiments, whole-cell extract from C81 cells was incubated with different concentrations of Peptide A-8R tagged with FITC at room temperature for 2 hours. IPs were performed using antibodies against sGCα1 or rabbit IgG as control. Peptide A-8R-FITC pulldown was measured by fluorescence signal at excitation and emission wavelengths of 485 and 521 nm, respectively, using a multi-well fluorescence plate reader.
(§1) Figure 2 Peptide A-8R interacts with sGCα1 in prostate cancer cells. (A) LNCaP cells were treated with 25 µM Biotin-labeled Peptide A-8R for 2 hrs and subjected to immunocytochemistry using anti-sGCα1 or anti-Biotin antibody to measure subcellular co-localization of endogenous sGCα1 and Peptide A-8R. DAPI was used to stain nuclei. (B) LNCaP cytosolic extracts were incubated with Peptide A-8R-Biotin and subjected to purification using streptavidin-agarose. This pull-down experiment was repeated with competing excess amount of unlabeled Peptide C-8R or Peptide A-8R. In both cases Western blotting was used to measure the co-purification of sGCα1. (C) LNCaP cell extract was incubated with different concentrations of Peptide A-8R-FITC and endogenous sGCα1 was immunoprecipitated. Co-purified Peptide A-8R-FITC was quantified by measuring fluorescence signal emission. […] Cell number was measured after 0–48 hrs of incubation. […]

[2] = Behavior and weight of mice in the animal studies; assay type: in vivo, mouse
Protocol: 2×10^6 C81 cells in 50 µL of growth medium was mixed with 50 µL Matrigel (BD Biosciences) and injected into both flanks of 4–6-week old SCID male mice. When tumor sizes reached 200 mm^3, 50 µL of Peptide A-8R (40 mg Peptide A-8R/Kg of animal) or Vehicle (DMSO) was directly injected into the tumors every other day. Injections were stopped after 5 times and tumors were measured every 3 days. Mice were euthanized after 3 weeks and tumors were excised. All procedures were approved by the University of Toledo Division of Lab Animal Recourses (DLAR). Protein extracts were prepared by boiling the tumor tissue in 3× SDS buffer, and evaluated by SDS-PAGE gel.
This study was carried out in strict accordance with the recommendations in the Guide for the Care and Use of Laboratory Animals of the National Institutes of Health. The protocol was approved by the Institutional Animal Care and Use Committee of the University of Toledo (Protocol Number: 106418). During the experiments all animals were monitored daily for morbidity and all efforts were made to minimize suffering. At the end of the study all animals were euthanized using inhalation of carbon dioxide, after which surgery was performed to excise tumors from all animals.

[3] = tested on: Caspase 3/7 activity in Cos cells; assay: Caspase 3/7 assay, Cos cells; assay type: cell-based, African green monkey; conditions: 10 µM; 0–24 hrs; Fig. 5C
Protocol: (§2) For proliferation, cells were grown in medium containing 2% FBS extracted with dextran-coated charcoal (DCC). 48 hours later, ethanol or 1 nM R1881 was added to the cells followed by peptide treatment. The MTT assay (Sigma) was used as before to determine cell number. For apoptosis, 5000 cells were seeded in 96-well plates and treated with Vehicle (DMSO), Peptide A-8R (25 µM), Etoposide (50 µM) (Sigma) at different time points. The Caspase (3/7) activity was measured using Apo-ONE Homogeneous Caspase-3/7 assay kit (Promega). PARP cleavage was also used to measure apoptosis, and is described below.
Figure 5 Peptide A-8R induces apoptosis of prostate cancer cells. (A) LNCaP, (B) PC-3, or (C) Cos cells were treated with Vehicle, Peptide A-8R (10 µM), or Etoposide (20 µM) for 0–24 hrs and subjected to a Caspase assay to measure apoptosis. Bar graphs represent averages of three independent experiments plus standard deviations. All activities are relative to the first condition, and this activity was set to 1. Asterisks indicate statistical significance (P<0.005). (D) LNCaP cells were treated with Vehicle, Peptide C-8R, Peptide A-8R, or Etoposide (each drug at 50 µM) for 8 hrs and monitored for apoptosis by measuring PARP cleavage using Western blotting. Note that β-actin was used to control for protein loading.

[4] = tested on: LNCaP cells; assay: Proliferation/cytotoxicity, LNCaP cells (MTT); assay type: cell-based; conditions: different concentrations, averages of three independent experiments
Protocol: LNCaP, C81, PC-3 and Cos cells were grown as previously described. CWR-22Rv1 cells were cultured in RMPI-1640 medium with 10% FBS and 50 µg/ml Gentamicin (Gibco). Control siRNA, sGCα1 siRNA and AKT siRNA (Dharmacon) at 50 nM final concentration was transfected into cells using Lipofectamine siMAX (Invitrogen).
as §2
(A) Four peptides were designed targeting sGCα1, with each peptide containing eight arginines at the C-terminus for membrane translocation. (B) LNCaP cells were grown in 10% serum under different concentrations of the four peptides, as shown. Cell number was measured after 0–4 days of incubation. Data points represent averages of three independent experiments plus standard deviations. Asterisks indicate statistical significance (P<0.0002) of Peptide A activity, relative to Vehicle.
as §1, with “In both cases Western blotting was used to measure the co-purification of sGCα1. (C) LNCaP cell extract was incubated with different concentrations of Peptide A-8R-FITC and endogenous sGCα1 was immunoprecipitated.” left out

## Ac-TFCKAFPFHIIRRRRRRRR [Peptide A-8R]
[1]
  pKd: 4.94
[2]
  effect on behavior or weight of mice: no effect on the behavior or weight of the mice
[3]
  induction of apoptosis, Cos: failed to induce apoptosis
[4]; 10% serum, 0–4 days, Fig. 1B, P<0.0002 Peptide A vs Vehicle
  cytotoxic activity / cell number, LNCaP: strong, dose-dependent, cytotoxic activity, killing nearly all cells by day 4; also recorded: strongly cytotoxic to prostate cancer cells
[4]; LNCaP, MTT, Fig. S2, P<0.005
  cytotoxic effect with or without 8-arginine sequence: strong cytotoxic effect
